These results are taken from US9238033B2, “Pharmaceutical composition containing KW-6002 and fluoxetine or paroxentine” (Kyowa Hakko Kirin Co., Ltd., priority 2003, dated 2016).

For one assay, the system named is ddY male mice. The assay can be described thus: Forced swimming method in mice (animal model of depression). To be noted: for Duration of immobility (sec) Mean value ± Standard error: last 4 min of 6 min test, Not Significant (Dunnett test); for Rate of change of duration of immobility to solvent control group (%): solvent control = 100%. The assay is classed as in vivo. How it is done: The test was carried out with reference to the method of Porsolt et al., [Arch. Int. Pharmacodyn. Ther., 229, 327-336 (1977)], which is an animal model of depression.
Experiment was conducted using 10 ddY male mice (weighing 20 to 35 g, Nihon SLC Co., Ltd) per one group.
An acrylic transparent cylinder having a diameter of 10 cm and a height of 25 cm was filled with water having a temperature of about 24° C. Height from the bottom of the cylinder to the surface of the water was adjusted to be about 9 cm.
The mice were forced to swim individually for a period of 6 minutes, the total duration of immobility during the last 4 minutes of 6 minutes test was measured (significance test: Dunnett test).
The antidepressant drug and Compound (I) were suspended in distilled water for injection (manufactured by Otsuka Pharmaceutical Co., Ltd.) containing 0.5% MC (methyl cellulose), respectively, for use in the test. Time point of administration of the antidepressant drug was predetermined such that the peak of onset of activity by the antidepressant drug overlaps with the peak of onset of activity by Compound (I). According to the predetermined time, the suspension containing the antidepressant drug was orally administered to a group administered the antidepressant drug alone or a group administered the antidepressant drug and Compound (I) in combination (0.1 mL per 10 g of the mouse body weight). Further, the suspension containing Compound (I) was orally administered to the group administered the antidepressant drug and Compound (I) in combination, 1 hour before the test (0.1 mL per 10 g of the mouse body weight). A solution without containing a test compound [distilled water for injection (manufactured by Otsuka Pharmaceutical Co., Ltd.) containing 0.5% MC] and the suspension containing Compound (I) were orally administered to a solvent control group and to a group administered Compound (I) alone, 1 hour before the test, respectively (0.1 mL per 10 g of the mouse body weight).
(§1) Effect obtained by combining Compound (I) and the antidepressant drug was evaluated according to the following index.
The duration of Immobility in the solvent control group was assumed to be 100%, and each rate of change (%) of the duration of, immobility in the above administration group to the duration of immobility in the solvent control group was calculated, and was compared. The duration of immobility in each administration group, and the rate of change (%) of the duration of immobility are shown in Table 1.

The subject of a further assay is ICR male mice. The assay is described as follows: Mouse tail suspension method (animal model of depression). The assay is classed as in vivo. To be noted: for Duration of immobility (sec) Mean value ± Standard error: last 4 min of 6 min test, Not Significant (Student's t test); for Rate of change of duration of immobility to solvent control group (%): solvent control = 100%. How it is done: The test was carried out with reference to the method of Steru et al., [Psychopharmacol., 85, 367-370 (1985)], which is an animal model of depression.
Experiment was conducted using 10 ICR male mice (weighing 20 to 35 g, Nihon SLC Co., Ltd) per one group.
An acrylic or metallic bat was fixed horizontally such that height of about 60 cm from the floor face is provided.
The mouse was suspended at a site of about 2 cm from the tip of the tail, from the bar for a period of 6 minutes. Duration of immobility during the last 4 minutes of 6 minutes test was measured (significance test: Student's t test). For fixing the mouse, an adhesive tape was used.
The antidepressant drug and Compound (I) were suspended in distilled water for injection (manufactured by Otsuka Pharmaceutical Co., Ltd.) containing 0.5% MC (methyl cellulose), respectively, for use in the test. Time point of administration of the antidepressant drug was predetermined such that the peak of onset of activity by the antidepressant drug overlaps with the peak of onset of activity by Compound (I). According to the predetermined time, the suspension containing the antidepressant drug was orally administered to a group administered the antidepressant drug alone or a group administered the antidepressant drug and Compound (I) in combination (0.1 mL per 10 g of the mouse body weight). Further, the suspension containing Compound (I) was orally administered to the group administered the antidepressant drug and Compound (I) in combination, 1 hour before the test (0.1 mL per […] of the mouse body weight). A solution without containing a test compound [distilled water for injection (manufactured by Otsuka Pharmaceutical Co., Ltd.) containing 0.5% MC] and the suspension containing Compound (I) were orally administered to a solvent control group and to a group administered Compound (I) alone, 1 hour before the test, respectively (0.1 mL per 10 g of the mouse body weight).
as §1
The duration of Immobility in the solvent control group was assumed to be 100%, and each rate of change (%) of the duration of immobility in the above administration group to the duration of immobility in the solvent control group was calculated, and was compared. The duration of immobility in each administration group, and the rate of change (%) of the duration of immobility are shown in Table 2 and Table 3.

[1] abbreviates: Venlafaxine hydrochloride 5.00 mg/kg orally.
[2] abbreviates: Table 2, paroxetine hydrochloride hydrate 2.50 mg/kg orally.
The mark [3] stands for this setting: Table 3, fluoxetine hydrochloride 10.00 mg/kg orally.
Setting [4] is: Compound (I) 0.08 mg/kg orally 1 hour before test.
The mark [5] stands for this setting: Table 2, Compound (I) 0.04 mg/kg orally 1 hour before test.
Setting [6] is: Table 3, Compound (I) 0.04 mg/kg orally 1 hour before test.

The structures appear in SMILES notation. Where a name gives a salt, the structure may show the parent alone.

`COc1ccc(C(CN(C)C)C2(O)CCCCC2)cc1` (stereo not drawn) [Venlafaxine hydrochloride]: in the assay on ddY male mice (setting [1]), the “Duration of immobility (sec) Mean value ± Standard error” value was found to be 173.1 ± 20.7 s and the “Rate of change of duration of immobility to solvent control group (%)” value (“Rate of change of duration of immobility … (%)” for short) is on record as −12%.
Take `Fc1ccc([C@@H]2CCNC[C@H]2COc2ccc3c(c2)OCO3)cc1` [Paroxetine hydrochloride hydrate]: in the assay on ICR male mice (setting [2]), the “Duration of immobility (sec) Mean value ± Standard error” value stood at 79.6 ± 16.6 s and the “Rate of change of duration of immobility … (%)” value is recorded as −2%.
In the case of `CNCCC(Oc1ccc(C(F)(F)F)cc1)c1ccccc1` (stereo not drawn) [Fluoxetine hydrochloride], in the assay with ICR male mice (setting [3]), the “Duration of immobility (sec) Mean value ± Standard error” value was found to be 85.7 ± 18.9 s and the “Rate of change of duration of immobility … (%)” value is −16%.
As to `CCn1c(=O)c2c(nc(/C=C/c3ccc(OC)c(OC)c3)n2C)n(CC)c1=O` [Compound (I), (E)-8-(3,4-dimethoxystyryl)-1,3-diethyl-7-methyl-3,7-dihydro-1H-purine-2,6-dione], the “Duration of immobility (sec) Mean value ± Standard error” value in the assay with ddY male mice (setting [4]) was found to be 155.6 ± 13.3 s; in the assay on ICR male mice (setting [5]), 70.1 ± 19.1 s; with ICR male mice (setting [6]) it was 87.9 ± 14.9 s. Moreover, the “Rate of change of duration of immobility … (%)” value in the assay on ddY male mice (setting [4]) is recorded as −21%; with ICR male mice (setting [5]), −14%; in the assay on ICR male mice (setting [6]) it was −26%.
